In article PMC3961306, “Comparison of the Cancer Gene Targeting and Biochemical Selectivities of All Targeted Kinase Inhibitors Approved for Clinical Use” (PLoS ONE, 2014):
“And” between values parts separate entries of the source, which are not always exact repeats. Identical values can stand only once. Like-named read-outs stand apart in the source and are kept apart here.

System: forty-four human cancer cell lines
Experiment: Cell proliferation assay (ATPlite, 72 hours) in the 44 cell line Oncolines panel
Type: cell-based

COc1cccc2c1C(=O)c1c(O)c3c(c(O)c1C2=O)C[C@@](O)(C(=O)CO)C[C@@H]3O[C@H]1C[C@H](N)[C@H](O)[C@H](C)O1 [doxorubicin]
IC50 (Homo sapiens, 769-P, cell line 769-P, read-out: cell panel IC50, 769-P): 113 nM
IC50 (Homo sapiens, 786-0, cell line 786-0, read-out: cell panel IC50, 786-0): 125 nM
IC50 (Homo sapiens, A 172, read-out: cell panel IC50, A-172, cell line A-172): 93 nM
IC50 (Homo sapiens, A498, read-out: cell panel IC50, A-498, cell line A-498): 96 nM
IC50 (Homo sapiens, A549, read-out: cell panel IC50, A-549, cell line A-549): 82 nM
IC50 (Homo sapiens, A-375, cell line A375, read-out: cell panel IC50, A375): 38 nM
IC50 (Homo sapiens, A-427, read-out: cell panel IC50, A-427, cell line A-427): 27 nM
IC50 (Homo sapiens, ACHN, cell line ACHN, read-out: cell panel IC50, ACHN): 61 nM
IC50 (Homo sapiens, AN3-CA, cell line AN3 CA, read-out: cell panel IC50, AN3 CA): 75 nM
IC50 (Homo sapiens, AU565, read-out: cell panel IC50, AU-565, cell line AU-565): 73 nM
IC50 (Homo sapiens, BT-20, cell line BT-20, read-out: cell panel IC50, BT-20): 190 nM
IC50 (Homo sapiens, BT-549, read-out: cell panel IC50, BT-549, cell line BT-549): 76 nM
IC50 (Homo sapiens, BXPC-3, cell line BxPC-3, read-out: cell panel IC50, BxPC-3): 172 nM
IC50 (Homo sapiens, C-33-A, cell line C-33 A, read-out: cell panel IC50, C-33 A): 26 nM
IC50 (Homo sapiens, CAL-27, cell line CAL 27, read-out: cell panel IC50, CAL 27): 21 nM
IC50 (Homo sapiens, CCRF-CEM, cell line CCRF-CEM, read-out: cell panel IC50, CCRF-CEM): 17 nM
IC50 (Homo sapiens, DLD-1, cell line DLD-1, read-out: cell panel IC50, DLD-1): 437 nM
IC50 (Homo sapiens, FaDu, cell line FaDu, read-out: cell panel IC50, FaDu): 45 nM
IC50 (Homo sapiens, HCT-15, cell line HCT-15, read-out: cell panel IC50, HCT-15): 237 nM
IC50 (Homo sapiens, HCT-116, read-out: cell panel IC50, HCT-116, cell line HCT-116): 44 nM
IC50 (Homo sapiens, Hs-578T, cell line Hs 578T, read-out: cell panel IC50, Hs 578T): 80 nM
IC50 (Homo sapiens, Jurkat E6.1, cell line Jurkat E6.1, read-out: cell panel IC50, Jurkat E6.1): 26 nM
IC50 (Homo sapiens, K562, read-out: cell panel IC50, K-562, cell line K-562): 55 nM
IC50 (Homo sapiens, LoVo, cell line LoVo, read-out: cell panel IC50, LoVo): 49 nM
IC50 (Homo sapiens, MG-63, cell line MG-63, read-out: cell panel IC50, MG-63): 56 nM
IC50 (Homo sapiens, MOLT-4, cell line MOLT-4, read-out: cell panel IC50, MOLT-4): 12 nM
IC50 (Homo sapiens, MeWo, cell line MeWo, read-out: cell panel IC50, MeWo): 204 nM
IC50 (Homo sapiens, NCI-H82, cell line NCI-H82, read-out: cell panel IC50, NCI-H82): 52 nM
IC50 (Homo sapiens, NCI-H460, cell line NCI-H460, read-out: cell panel IC50, NCI-H460): 21 nM
IC50 (Homo sapiens, OVCAR-3, cell line OVCAR-3, read-out: cell panel IC50, OVCAR-3): 259 nM
IC50 (Homo sapiens, RPMI-7951, cell line RPMI-7951, read-out: cell panel IC50, RPMI-7951): 28 nM
IC50 (Homo sapiens, SK-N-AS, cell line SK-N-AS, read-out: cell panel IC50, SK-N-AS): 72 nM
IC50 (Homo sapiens, SW48, cell line SW48, read-out: cell panel IC50, SW48): 208 nM
IC50 (Homo sapiens, SW480, cell line SW480, read-out: cell panel IC50, SW480): 353 nM
IC50 (Homo sapiens, SW-620, cell line SW620, read-out: cell panel IC50, SW620): 296 nM
IC50 (Homo sapiens, U2OS, cell line U-2 OS, read-out: cell panel IC50, U-2 OS): 109 nM
IC50 (Homo sapiens, U-87 MG, 72 h, U-87 MG cell line, ATPlite, 72 hours, read-out: IC50 in cell proliferation assay (table S5 cellpanel data)): 111 nM
IC50 (Homo sapiens, cell line J82, read-out: cell panel IC50, J82): 151 nM
IC50 (Homo sapiens, cell line PA-1, read-out: cell panel IC50, PA-1): 4 nM
IC50 (Homo sapiens, cell line SJCRH30, read-out: cell panel IC50, SJCRH30): 71 nM
IC50 (Homo sapiens, cell line SR, read-out: cell panel IC50, SR): 6 nM
IC50 (U-87 MG cell line, ATPlite, 72 hours, read-out: IC50 in cell proliferation assay (table S5 cellpanel data)): 89 nM
IC50 (cell line 769-P, read-out: cell panel IC50, 769-P): 142 nM and 144 nM
IC50 (cell line 786-0, read-out: cell panel IC50, 786-0): 103 nM
IC50 (cell line A375, read-out: cell panel IC50, A375): 35 nM and 51 nM
IC50 (cell line ACHN, read-out: cell panel IC50, ACHN): 84 nM
IC50 (cell line AN3 CA, read-out: cell panel IC50, AN3 CA): 81 nM and 94 nM
IC50 (cell line BT-20, read-out: cell panel IC50, BT-20): 207 nM and 157 nM
IC50 (cell line BxPC-3, read-out: cell panel IC50, BxPC-3): 227 nM and 286 nM
IC50 (cell line CAL 27, read-out: cell panel IC50, CAL 27): 20 nM
IC50 (cell line CCRF-CEM, read-out: cell panel IC50, CCRF-CEM): 20 nM
IC50 (cell line DLD-1, read-out: cell panel IC50, DLD-1): 429 nM and 346 nM
IC50 (cell line FaDu, read-out: cell panel IC50, FaDu): 47 nM and 57 nM
IC50 (cell line HCT-15, read-out: cell panel IC50, HCT-15): 254 nM and 276 nM
IC50 (cell line Hs 578T, read-out: cell panel IC50, Hs 578T): 89 nM and 58 nM
IC50 (cell line J82, read-out: cell panel IC50, J82): 144 nM and 135 nM
IC50 (cell line Jurkat E6.1, read-out: cell panel IC50, Jurkat E6.1): 31 nM and 24 nM
IC50 (cell line LoVo, read-out: cell panel IC50, LoVo): 59 nM
IC50 (cell line MG-63, read-out: cell panel IC50, MG-63): 67 nM and 87 nM
IC50 (cell line MOLT-4, read-out: cell panel IC50, MOLT-4): 11 nM and 13 nM
IC50 (cell line MeWo, read-out: cell panel IC50, MeWo): 226 nM and 264 nM
IC50 (cell line NCI-H82, read-out: cell panel IC50, NCI-H82): 65 nM
IC50 (cell line NCI-H460, read-out: cell panel IC50, NCI-H460): 25 nM
IC50 (cell line OVCAR-3, read-out: cell panel IC50, OVCAR-3): 314 nM and 276 nM
IC50 (cell line PA-1, read-out: cell panel IC50, PA-1): 5.26 nM and 6.46 nM
IC50 (cell line RPMI-7951, read-out: cell panel IC50, RPMI-7951): 33 nM and 32 nM
IC50 (cell line SJCRH30, read-out: cell panel IC50, SJCRH30): 62 nM and 43 nM
IC50 (cell line SK-N-AS, read-out: cell panel IC50, SK-N-AS): 100 nM
IC50 (cell line SR, read-out: cell panel IC50, SR): 6.54 nM and 10 nM
IC50 (cell line SW48, read-out: cell panel IC50, SW48): 112 nM and 121 nM
IC50 (cell line SW480, read-out: cell panel IC50, SW480): 315 nM and 369 nM
IC50 (cell line SW620, read-out: cell panel IC50, SW620): 354 nM and 446 nM
IC50 (cell line U-2 OS, read-out: cell panel IC50, U-2 OS): 115 nM and 153 nM
IC50 (read-out: cell panel IC50, A-172, cell line A-172): 95 nM
IC50 (read-out: cell panel IC50, A-427, cell line A-427): 31 nM and 40 nM
IC50 (read-out: cell panel IC50, A-498, cell line A-498): 92 nM and 91 nM
IC50 (read-out: cell panel IC50, A-549, cell line A-549): 68 nM
IC50 (read-out: cell panel IC50, AU-565, cell line AU-565): 94 nM and 79 nM
IC50 (read-out: cell panel IC50, BT-549, cell line BT-549): 90 nM
IC50 (read-out: cell panel IC50, HCT-116, cell line HCT-116): 62 nM and 64 nM
IC50 (read-out: cell panel IC50, K-562, cell line K-562): 57 nM

CN(C)C/C=C/C(=O)Nc1cc2c(Nc3ccc(F)c(Cl)c3)ncnc2cc1O[C@H]1CCOC1 [afatinib]
IC50 (Homo sapiens, 4-4 cell, read-out: cell panel IC50, J82): 3340 nM
IC50 (Homo sapiens, 4-4 cell, read-out: cell panel IC50, PA-1): 1900 nM
IC50 (Homo sapiens, 4-4 cell, read-out: cell panel IC50, SJCRH30): 2440 nM
IC50 (Homo sapiens, 4-4 cell, read-out: cell panel IC50, SR): 988 nM
IC50 (Homo sapiens, 769-P, read-out: cell panel IC50, 769-P): 2230 nM
IC50 (Homo sapiens, 786-0, read-out: cell panel IC50, 786-0): 2720 nM
IC50 (Homo sapiens, A 172, read-out: cell panel IC50, A-172): 2950 nM
IC50 (Homo sapiens, A204, read-out: cell panel IC50, A-204): 2220 nM
IC50 (Homo sapiens, A498, read-out: cell panel IC50, A-498): 2730 nM
IC50 (Homo sapiens, A549, read-out: cell panel IC50, A-549): 3160 nM
IC50 (Homo sapiens, A-375, read-out: cell panel IC50, A375): 1280 nM
IC50 (Homo sapiens, A-427, read-out: cell panel IC50, A-427): 2900 nM
IC50 (Homo sapiens, ACHN, read-out: cell panel IC50, ACHN): 297 nM
IC50 (Homo sapiens, AN3-CA, read-out: cell panel IC50, AN3 CA): 2780 nM
IC50 (Homo sapiens, AU565, read-out: cell panel IC50, AU-565): 13 nM
IC50 (Homo sapiens, BT-20, read-out: cell panel IC50, BT-20): 4350 nM
IC50 (Homo sapiens, BT-549, read-out: cell panel IC50, BT-549): 3270 nM
IC50 (Homo sapiens, BXPC-3, read-out: cell panel IC50, BxPC-3): 3690 nM
IC50 (Homo sapiens, C-33-A, read-out: cell panel IC50, C-33 A): 21 nM
IC50 (Homo sapiens, CAL-27, read-out: cell panel IC50, CAL 27): 434 nM
IC50 (Homo sapiens, CCRF-CEM, read-out: cell panel IC50, CCRF-CEM): 1280 nM
IC50 (Homo sapiens, DLD-1, read-out: cell panel IC50, DLD-1): 1710 nM
IC50 (Homo sapiens, FaDu, read-out: cell panel IC50, FaDu): 3.42 nM
IC50 (Homo sapiens, HCT-15, read-out: cell panel IC50, HCT-15): 1550 nM
IC50 (Homo sapiens, HCT-116, read-out: cell panel IC50, HCT-116): 935 nM
IC50 (Homo sapiens, Hs-578T, read-out: cell panel IC50, Hs 578T): 3380 nM
IC50 (Homo sapiens, Jurkat E6.1, read-out: cell panel IC50, Jurkat E6.1): 870 nM
IC50 (Homo sapiens, K562, read-out: cell panel IC50, K-562): 3270 nM
IC50 (Homo sapiens, LS174T, read-out: cell panel IC50, LS 174T): 1310 nM
IC50 (Homo sapiens, LoVo, read-out: cell panel IC50, LoVo): 2070 nM
IC50 (Homo sapiens, MG-63, read-out: cell panel IC50, MG-63): 2830 nM
IC50 (Homo sapiens, MOLT-4, read-out: cell panel IC50, MOLT-4): 922 nM
IC50 (Homo sapiens, MeWo, read-out: cell panel IC50, MeWo): 3770 nM
IC50 (Homo sapiens, NCI-H82, read-out: cell panel IC50, NCI-H82): 2230 nM
IC50 (Homo sapiens, NCI-H460, read-out: cell panel IC50, NCI-H460): 2640 nM
IC50 (Homo sapiens, OVCAR-3, read-out: cell panel IC50, OVCAR-3): 2100 nM
IC50 (Homo sapiens, RPMI-7951, read-out: cell panel IC50, RPMI-7951): 3580 nM
IC50 (Homo sapiens, SHP77, read-out: cell panel IC50, SHP-77): 3660 nM
IC50 (Homo sapiens, SK-N-AS, read-out: cell panel IC50, SK-N-AS): 2230 nM
IC50 (Homo sapiens, SW48, read-out: cell panel IC50, SW48): 4170 nM
IC50 (Homo sapiens, SW480, read-out: cell panel IC50, SW480): 3640 nM
IC50 (Homo sapiens, SW-620, read-out: cell panel IC50, SW620): 3360 nM
IC50 (Homo sapiens, U2OS, read-out: cell panel IC50, U-2 OS): 2570 nM
IC50 (Homo sapiens, U-87 MG, 72 h, read-out: IC50 in cell proliferation assay (table S5 cellpanel data)): 5020 nM
